Laboratory results from the supplement of paper PMC10307832.

Key:
Experiment in all cases: relative viability (nuclei count vs DMSO), 5 days (fraction); higher = more cells survive
NCI-H2228 = tested on: NCI-H2228
Method in brief: (§1)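 A single step with final 0.05% Triton X-100, 1% formaldehyde and 1 ug/ml Hoechst fixed the cells and stained nuclei 5 days after treatment. Lung cancer cell lines in 1536-well plates had been treated by pin tool the day after seeding with one drug alone or a fixed anchor-drug dose plus five library-drug doses (not always all listed) in √10 steps, and nuclei were counted on 4× images. Relative viability is the ratio of nuclei in treated wells to nuclei in vehicle wells, taken as the median of duplicate plates.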

COR-L 105 = tested on: COR-L 105
Method in brief: as §1

HOP-62 = tested on: HOP-62
Method in brief: as §1

NCI-H1755 = tested on: NCI-H1755
Method in brief: as §1

PC-14 = tested on: PC-14
Method in brief: as §1

NCI-H2170 = tested on: NCI-H2170
Method in brief: as §1

UMC-11 = tested on: UMC-11
Method in brief: as §1

EKVX = tested on: EKVX
Method in brief: as §1

NCI-H1793 = tested on: NCI-H1793
Method in brief: as §1

NCI-H1734 = tested on: NCI-H1734
Method in brief: as §1

NCI-H2342 = tested on: NCI-H2342
Method in brief: as §1

SK-MES-1 = tested on: SK-MES-1
Method in brief: as §1

NCI-H838 = tested on: NCI-H838
Method in brief: as §1

NCI-H647 = tested on: NCI-H647
Method in brief: as §1

NCI-H2347 = tested on: NCI-H2347
Method in brief: as §1

HCC-15 = tested on: HCC-15
Method in brief: as §1

NCI-H2009 = tested on: NCI-H2009
Method in brief: as §1

NCI-H1395 = tested on: NCI-H1395
Method in brief: as §1

NCI-H1355 = tested on: NCI-H1355
Method in brief: as §1

COR-L23 = tested on: COR-L23
Method in brief: as §1

HARA = tested on: HARA
Method in brief: as §1

NCI-H1993 = tested on: NCI-H1993
Method in brief: as §1

NCI-H358 = tested on: NCI-H358
Method in brief: as §1

## Oc1nc(-c2ccc(C(F)(F)F)cc2)nc2c1CSCC2 [XAV939] + Cc1cc(Nc2cc(N3CCN(C)CC3)nc(Sc3ccc(NC(=O)C4CC4)cc3)n2)n[nH]1 [Tozasertib] (partner 0.1 µM)
NCI-H2228; first compound 0.08 µM
  relative viability: 0.31
NCI-H2228; first compound 0.253 µM
  relative viability: 0.23
NCI-H2228; first compound 0.8 µM
  relative viability: 0.247
NCI-H2228; first compound 2.53 µM
  relative viability: 0.255
COR-L 105; first compound 0.08 µM
  relative viability: 0.358
COR-L 105; first compound 0.253 µM
  relative viability: 0.374
COR-L 105; first compound 0.8 µM
  relative viability: 0.349
COR-L 105; first compound 2.53 µM
  relative viability: 0.343
HOP-62; first compound 0.08 µM
  relative viability: 0.372
HOP-62; first compound 0.253 µM
  relative viability: 0.339
HOP-62; first compound 0.8 µM
  relative viability: 0.338
HOP-62; first compound 2.53 µM
  relative viability: 0.329
NCI-H1755; first compound 0.08 µM
  relative viability: 0.575
NCI-H1755; first compound 0.253 µM
  relative viability: 0.518
NCI-H1755; first compound 0.8 µM
  relative viability: 0.587
NCI-H1755; first compound 2.53 µM
  relative viability: 0.481
PC-14; first compound 0.08 µM
  relative viability: 0.673
PC-14; first compound 0.253 µM
  relative viability: 0.551
PC-14; first compound 0.8 µM
  relative viability: 0.685
PC-14; first compound 2.53 µM
  relative viability: 0.544
NCI-H2170; first compound 0.08 µM
  relative viability: 0.763
NCI-H2170; first compound 0.253 µM
  relative viability: 0.606
NCI-H2170; first compound 0.8 µM
  relative viability: 0.66
NCI-H2170; first compound 2.53 µM
  relative viability: 0.463
UMC-11; first compound 0.08 µM
  relative viability: 0.189
UMC-11; first compound 0.253 µM
  relative viability: 0.205
UMC-11; first compound 0.8 µM
  relative viability: 0.19
UMC-11; first compound 2.53 µM
  relative viability: 0.211
EKVX; first compound 0.08 µM
  relative viability: 0.47
EKVX; first compound 0.253 µM
  relative viability: 0.36
EKVX; first compound 0.8 µM
  relative viability: 0.372
EKVX; first compound 2.53 µM
  relative viability: 0.29
NCI-H1793; first compound 0.08 µM
  relative viability: 0.403
NCI-H1793; first compound 0.253 µM
  relative viability: 0.297
NCI-H1793; first compound 0.8 µM
  relative viability: 0.306
NCI-H1793; first compound 2.53 µM
  relative viability: 0.263
NCI-H1734; first compound 0.08 µM
  relative viability: 0.243
NCI-H1734; first compound 0.253 µM
  relative viability: 0.206
NCI-H1734; first compound 0.8 µM
  relative viability: 0.261
NCI-H1734; first compound 2.53 µM
  relative viability: 0.293
NCI-H2342; first compound 0.08 µM
  relative viability: 0.592
NCI-H2342; first compound 0.253 µM
  relative viability: 0.511
NCI-H2342; first compound 0.8 µM
  relative viability: 0.419
NCI-H2342; first compound 2.53 µM
  relative viability: 0.301
SK-MES-1; first compound 0.08 µM
  relative viability: 0.956
SK-MES-1; first compound 0.253 µM
  relative viability: 0.816
SK-MES-1; first compound 0.8 µM
  relative viability: 0.807
SK-MES-1; first compound 2.53 µM
  relative viability: 0.768
NCI-H838; first compound 0.08 µM
  relative viability: 0.274
NCI-H838; first compound 0.253 µM
  relative viability: 0.259
NCI-H838; first compound 0.8 µM
  relative viability: 0.276
NCI-H838; first compound 2.53 µM
  relative viability: 0.209
NCI-H647; first compound 0.08 µM
  relative viability: 0.288
NCI-H647; first compound 0.253 µM
  relative viability: 0.217
NCI-H647; first compound 0.8 µM
  relative viability: 0.262
NCI-H647; first compound 2.53 µM
  relative viability: 0.146
NCI-H2347; first compound 0.08 µM
  relative viability: 0.613
NCI-H2347; first compound 2.53 µM
  relative viability: 0.388
HCC-15; first compound 0.08 µM
  relative viability: 0.452
HCC-15; first compound 0.253 µM
  relative viability: 0.382
HCC-15; first compound 0.8 µM
  relative viability: 0.394
HCC-15; first compound 2.53 µM
  relative viability: 0.368
NCI-H2009; first compound 0.08 µM
  relative viability: 0.84
NCI-H2009; first compound 0.253 µM
  relative viability: 0.66
NCI-H2009; first compound 0.8 µM
  relative viability: 0.713
NCI-H2009; first compound 2.53 µM
  relative viability: 0.647
NCI-H1395; first compound 0.08 µM
  relative viability: 0.716
NCI-H1395; first compound 0.253 µM
  relative viability: 0.651
NCI-H1395; first compound 0.8 µM
  relative viability: 0.797
NCI-H1395; first compound 2.53 µM
  relative viability: 0.632
NCI-H1355; first compound 0.08 µM
  relative viability: 0.715
NCI-H1355; first compound 0.253 µM
  relative viability: 0.473
NCI-H1355; first compound 0.8 µM
  relative viability: 0.548
NCI-H1355; first compound 2.53 µM
  relative viability: 0.411
COR-L23; first compound 0.08 µM
  relative viability: 0.194
COR-L23; first compound 0.253 µM
  relative viability: 0.195
COR-L23; first compound 0.8 µM
  relative viability: 0.225
COR-L23; first compound 2.53 µM
  relative viability: 0.154
HARA; first compound 0.08 µM
  relative viability: 0.107
HARA; first compound 0.253 µM
  relative viability: 0.0774
HARA; first compound 0.8 µM
  relative viability: 0.102
HARA; first compound 2.53 µM
  relative viability: 0.103
NCI-H1993; first compound 0.08 µM
  relative viability: 0.559
NCI-H1993; first compound 0.253 µM
  relative viability: 0.605
NCI-H1993; first compound 0.8 µM
  relative viability: 0.551
NCI-H1993; first compound 2.53 µM
  relative viability: 0.59
NCI-H358; first compound 0.08 µM
  relative viability: 0.112
NCI-H358; first compound 0.253 µM
  relative viability: 0.0945
NCI-H358; first compound 0.8 µM
  relative viability: 0.0995
NCI-H358; first compound 2.53 µM
  relative viability: 0.0987
